Earlier results as cited in publication PMC4905688 (Biomaterials, 2016).

System: ischemic limbs

Substance: VEGF
- Effect of local delivery on ischemia / vessels: modest reversal of ischemia or the development of leaky blood vessels
